Measurements: the supplement of paper PMC9512659

Key:
[1] = test system: Mycobacterium tuberculosis Erdman (pMV306hsp+LuxG13); assay: GRinf, normalised growth-rate inhibition at infinite dose (GR value (unitless, negative = killing)); higher = less potent
Description: (§1)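 DiaMOND pairwise dose responses of an equipotent two-drug mixture (1.5-fold, 10-dose series) against autoluminescent M. tuberculosis Erdman in 384-well plates. Growth inhibition was read by OD600 (luminescence for dormancy) in seven media at a constant and a terminal time point; metrics are means of at least biological duplicates. Einf and AUC25 higher = more potent; GRinf lower = more potent; log2FIC negative = synergy.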

[2] = test system: Mycobacterium tuberculosis Erdman (pMV306hsp+LuxG13); assay: log2 fractional inhibitory concentration at 50% inhibition (log2 FIC); higher = more antagonistic
Description: as §1

[3] = test system: Mycobacterium tuberculosis Erdman (pMV306hsp+LuxG13); assay: log2 fractional inhibitory concentration at 90% inhibition (log2 FIC); higher = more antagonistic
Description: as §1

[4] = test system: Mycobacterium tuberculosis Erdman (pMV306hsp+LuxG13); assay: AUC25, normalised area under the dose-response curve up to IC25 (normalised AUC (unitless)); higher = more potent
Description: as §1

[5] = test system: Mycobacterium tuberculosis Erdman (pMV306hsp+LuxG13); assay: Einf, effect of the drug pair at infinite dose (maximum growth inhibition) (fraction inhibition (0-1)); higher = more potent; extreme values may be limits of the assay
Description: as §1

[6] = growth medium: butyrate 5 mM, time point: constant time point
[7] = growth medium: butyrate 5 mM, time point: terminal time point
[8] = growth medium: cholesterol 0.05 mM, time point: constant time point
[9] = growth medium: cholesterol 0.2 mM (cholesterol-high), time point: constant time point
[10] = growth medium: cholesterol 0.2 mM (cholesterol-high), time point: terminal time point
[11] = growth medium: hypoxic dormancy (butyrate + nitrate), then recovery, time point: constant time point
[12] = growth medium: hypoxic dormancy (butyrate + nitrate), then recovery, time point: terminal time point
[13] = growth medium: standard 7H9 OADC glycerol, time point: constant = terminal time point (4.2 d)
[14] = growth medium: valerate 0.1%, time point: constant time point
[15] = growth medium: valerate 0.1%, time point: terminal time point
[16] = growth medium: acidic pH 5.7, glycerol, time point: constant time point
[17] = growth medium: acidic pH 5.7, glycerol, time point: terminal time point
[18] = growth medium: cholesterol 0.05 mM, time point: terminal time point

## COc1nc2ccc(Br)cc2cc1[C@@H](c1ccccc1)[C@@](O)(CCN(C)C)c1cccc2ccccc12 [bedaquiline] + CC(C)=CCC/C(C)=C/CNCCNC1C2CC3CC(C2)CC1C3 [SQ109]
[1]; [6]
  GRinf: -0.11
[1]; [7]
  GRinf: -0.0824
[1]; [8]
  GRinf: -0.737
[1]; [9]
  GRinf: -0.847
[1]; [10]
  GRinf: -0.779
[1]; [11]
  GRinf: -0.388
[1]; [12]
  GRinf: 0.0989
[1]; [13]
  GRinf: -0.158
[1]; [14]
  GRinf: -0.151
[1]; [15]
  GRinf: -0.127
[2]; [6]
  log2 fractional inhibitory concentration: 0.85
[2]; [7]
  log2 fractional inhibitory concentration: 0.817
[2]; [8]
  log2 fractional inhibitory concentration: 0.241
[2]; [9]
  log2 fractional inhibitory concentration: 0.546
[2]; [10]
  log2 fractional inhibitory concentration: 0.31
[2]; [11]
  log2 fractional inhibitory concentration: 1.24
[2]; [12]
  log2 fractional inhibitory concentration: -0.811
[2]; [13]
  log2 fractional inhibitory concentration: 0.0969
[2]; [14]
  log2 fractional inhibitory concentration: 0.191
[2]; [15]
  log2 fractional inhibitory concentration: 0.276
[3]; [6]
  log2 fractional inhibitory concentration: 0.414
[3]; [7]
  log2 fractional inhibitory concentration: 0.616
[3]; [9]
  log2 fractional inhibitory concentration: 0.667
[3]; [10]
  log2 fractional inhibitory concentration: 0.799
[3]; [11]
  log2 fractional inhibitory concentration: 1.04
[3]; [12]
  log2 fractional inhibitory concentration: -0.972
[3]; [14]
  log2 fractional inhibitory concentration: -0.0839
[3]; [15]
  log2 fractional inhibitory concentration: -0.384
[4]; [6]
  AUC25: 0.0731
[4]; [7]
  AUC25: 0.0507
[4]; [8]
  AUC25: 0.085
[4]; [9]
  AUC25: 0.0719
[4]; [10]
  AUC25: 0.0884
[4]; [11]
  AUC25: 0.0746
[4]; [12]
  AUC25: 0.0292
[4]; [13]
  AUC25: 0.0609
[4]; [14]
  AUC25: 0.0593
[4]; [15]
  AUC25: 0.047
[5]; [6]
  Einf: 0.963
[5]; [7]
  Einf: 0.979
[5]; [8]
  Einf: 0.82
[5]; [9]
  Einf: 1
[5]; [10]
  Einf: 1
[5]; [11]
  Einf: 0.992
[5]; [12]
  Einf: 0.964
[5]; [13]
  Einf: 0.967
[5]; [14]
  Einf: 0.996
[5]; [15]
  Einf: 0.993

## CO[C@H]1/C=C/O[C@@]2(C)Oc3c(C)c(O)c4c(O)c(c(/C=N/N5CCN(C6CCCC6)CC5)c(O)c4c3C2=O)NC(=O)/C(C)=C\C=C\[C@H](C)[C@H](O)[C@@H](C)[C@@H](O)[C@@H](C)[C@H](OC(C)=O)[C@@H]1C [rifapentine] + CC(=O)NC[C@H]1CN(c2ccc(N3CCSCC3)c(F)c2)C(=O)O1 [sutezolid]
[1]; [16]
  GRinf: -0.224
[1]; [17]
  GRinf: -0.263
[1]; [6]
  GRinf: 0.0472
[1]; [7]
  GRinf: 0.0324
[1]; [8]
  GRinf: -1
[1]; [18]
  GRinf: -1
[1]; [9]
  GRinf: -1
[1]; [10]
  GRinf: -0.769
[1]; [11]
  GRinf: 0.21
[1]; [12]
  GRinf: 0.209
[1]; [13]
  GRinf: -0.0675
[1]; [14]
  GRinf: -0.107
[1]; [15]
  GRinf: -0.0835
[2]; [16]
  log2 fractional inhibitory concentration: -0.201
[2]; [17]
  log2 fractional inhibitory concentration: 0.0996
[2]; [6]
  log2 fractional inhibitory concentration: 0.129
[2]; [7]
  log2 fractional inhibitory concentration: 0.16
[2]; [8]
  log2 fractional inhibitory concentration: -0.454
[2]; [18]
  log2 fractional inhibitory concentration: -1.5
[2]; [9]
  log2 fractional inhibitory concentration: -0.331
[2]; [10]
  log2 fractional inhibitory concentration: -0.38
[2]; [11]
  log2 fractional inhibitory concentration: -0.541
[2]; [12]
  log2 fractional inhibitory concentration: 0.397
[2]; [13]
  log2 fractional inhibitory concentration: -0.00234
[2]; [14]
  log2 fractional inhibitory concentration: -0.128
[2]; [15]
  log2 fractional inhibitory concentration: 0.176
[3]; [17]
  log2 fractional inhibitory concentration: -0.527
[3]; [7]
  log2 fractional inhibitory concentration: -0.276
[3]; [8]
  log2 fractional inhibitory concentration: 0.00059
[3]; [18]
  log2 fractional inhibitory concentration: -0.142
[3]; [9]
  log2 fractional inhibitory concentration: -0.285
[3]; [10]
  log2 fractional inhibitory concentration: -0.276
[3]; [11]
  log2 fractional inhibitory concentration: -0.514
[3]; [12]
  log2 fractional inhibitory concentration: 0.244
[3]; [13]
  log2 fractional inhibitory concentration: -0.509
[3]; [15]
  log2 fractional inhibitory concentration: 0.234
[4]; [16]
  AUC25: 0.0889
[4]; [17]
  AUC25: 0.0808
[4]; [6]
  AUC25: 0.0809
[4]; [7]
  AUC25: 0.0542
[4]; [8]
  AUC25: 0.0962
[4]; [18]
  AUC25: 0.135
[4]; [9]
  AUC25: 0.0718
[4]; [10]
  AUC25: 0.0787
[4]; [11]
  AUC25: 0.0482
[4]; [12]
  AUC25: 0.0473
[4]; [13]
  AUC25: 0.0417
[4]; [14]
  AUC25: 0.107
[4]; [15]
  AUC25: 0.0657
[5]; [16]
  Einf: 0.884
[5]; [17]
  Einf: 0.987
[5]; [6]
  Einf: 0.896
[5]; [7]
  Einf: 0.942
[5]; [8]
  Einf: 1
[5]; [18]
  Einf: 1
[5]; [9]
  Einf: 1
[5]; [10]
  Einf: 1
[5]; [11]
  Einf: 0.974
[5]; [12]
  Einf: 0.963
[5]; [13]
  Einf: 0.983
[5]; [14]
  Einf: 0.877
[5]; [15]
  Einf: 0.976

## O=[N+]([O-])c1cn2c(n1)OC[C@@H](OCc1ccc(OC(F)(F)F)cc1)C2 [pretomanid] + CC(=O)NC[C@H]1CN(c2ccc(N3CCSCC3)c(F)c2)C(=O)O1 [sutezolid]
[1]; [16]
  GRinf: -0.246
[1]; [17]
  GRinf: -0.346
[1]; [6]
  GRinf: 0.0242
[1]; [7]
  GRinf: -0.0169
[1]; [8]
  GRinf: -1
[1]; [9]
  GRinf: -0.417
[1]; [10]
  GRinf: -0.326
[1]; [11]
  GRinf: 0.332
[1]; [12]
  GRinf: 0.457
[1]; [13]
  GRinf: -0.142
[1]; [14]
  GRinf: -0.158
[1]; [15]
  GRinf: -0.0339
[2]; [16]
  log2 fractional inhibitory concentration: -0.119
[2]; [17]
  log2 fractional inhibitory concentration: 0.0862
[2]; [6]
  log2 fractional inhibitory concentration: 1.07
[2]; [7]
  log2 fractional inhibitory concentration: 0.95
[2]; [8]
  log2 fractional inhibitory concentration: -0.159
[2]; [9]
  log2 fractional inhibitory concentration: -0.512
[2]; [10]
  log2 fractional inhibitory concentration: -0.395
[2]; [11]
  log2 fractional inhibitory concentration: -0.376
[2]; [12]
  log2 fractional inhibitory concentration: -0.056
[2]; [13]
  log2 fractional inhibitory concentration: 0.0178
[2]; [14]
  log2 fractional inhibitory concentration: -0.783
[2]; [15]
  log2 fractional inhibitory concentration: -0.609
[3]; [17]
  log2 fractional inhibitory concentration: -0.449
[3]; [7]
  log2 fractional inhibitory concentration: 1.11
[3]; [9]
  log2 fractional inhibitory concentration: 0.19
[3]; [10]
  log2 fractional inhibitory concentration: -0.4
[3]; [11]
  log2 fractional inhibitory concentration: -0.853
[3]; [12]
  log2 fractional inhibitory concentration: -0.41
[3]; [13]
  log2 fractional inhibitory concentration: -0.266
[3]; [15]
  log2 fractional inhibitory concentration: -0.487
[4]; [16]
  AUC25: 0.0784
[4]; [17]
  AUC25: 0.0823
[4]; [6]
  AUC25: 0.0935
[4]; [7]
  AUC25: 0.0736
[4]; [8]
  AUC25: 0.0266
[4]; [9]
  AUC25: 0.0533
[4]; [10]
  AUC25: 0.0918
[4]; [11]
  AUC25: 0.0715
[4]; [12]
  AUC25: 0.0423
[4]; [13]
  AUC25: 0.0632
[4]; [14]
  AUC25: 0.119
[4]; [15]
  AUC25: 0.0856
[5]; [16]
  Einf: 0.879
[5]; [17]
  Einf: 0.987
[5]; [6]
  Einf: 0.93
[5]; [7]
  Einf: 0.97
[5]; [8]
  Einf: 0.865
[5]; [9]
  Einf: 0.961
[5]; [10]
  Einf: 1
[5]; [11]
  Einf: 0.965
[5]; [12]
  Einf: 0.932
[5]; [13]
  Einf: 0.988
[5]; [14]
  Einf: 0.974
[5]; [15]
  Einf: 0.978

## CC(C)/N=c1\cc2n(-c3ccc(Cl)cc3)c3ccccc3nc-2cc1Nc1ccc(Cl)cc1 [clofazimine] + CC(C)=CCC/C(C)=C/CNCCNC1C2CC3CC(C2)CC1C3 [SQ109]
[1]; [6]
  GRinf: -0.113
[1]; [7]
  GRinf: -0.111
[1]; [8]
  GRinf: -0.558
[1]; [9]
  GRinf: -0.966
[1]; [10]
  GRinf: -0.823
[1]; [11]
  GRinf: -0.486
[1]; [12]
  GRinf: 0.147
[1]; [13]
  GRinf: -0.0512
[2]; [6]
  log2 fractional inhibitory concentration: -0.227
[2]; [7]
  log2 fractional inhibitory concentration: -0.367
[2]; [8]
  log2 fractional inhibitory concentration: -0.774
[2]; [9]
  log2 fractional inhibitory concentration: -0.041
[2]; [10]
  log2 fractional inhibitory concentration: 0.4
[2]; [11]
  log2 fractional inhibitory concentration: -1.61
[2]; [12]
  log2 fractional inhibitory concentration: -1.78
[2]; [13]
  log2 fractional inhibitory concentration: -0.519
[3]; [6]
  log2 fractional inhibitory concentration: -0.83
[3]; [7]
  log2 fractional inhibitory concentration: -0.678
[3]; [9]
  log2 fractional inhibitory concentration: -0.582
[3]; [10]
  log2 fractional inhibitory concentration: -0.374
[3]; [11]
  log2 fractional inhibitory concentration: -2.43
[3]; [12]
  log2 fractional inhibitory concentration: -1.63
[4]; [6]
  AUC25: 0.0628
[4]; [7]
  AUC25: 0.0621
[4]; [8]
  AUC25: 0.0691
[4]; [9]
  AUC25: 0.0566
[4]; [10]
  AUC25: 0.0744
[4]; [11]
  AUC25: 0.0761
[4]; [12]
  AUC25: 0.0554
[4]; [13]
  AUC25: 0.0939
[5]; [6]
  Einf: 0.941
[5]; [7]
  Einf: 0.973
[5]; [8]
  Einf: 0.758
[5]; [9]
  Einf: 0.997
[5]; [10]
  Einf: 1
[5]; [11]
  Einf: 0.99
[5]; [12]
  Einf: 0.962
[5]; [13]
  Einf: 0.937
